Measurements taken from patent US20260109732A1, “LIPID AMINES” (ModernaTX, Inc., priority 2021, published 2026).
Where a name gives a salt, the structure may show the parent alone.

Key:
HeLa cells [1] = experiment: Luciferase Protein Expression Assay in HeLa Cells; type: cell-based, Human; conditions: LNPs encapsulating Luciferase mRNA, 25 ng per well, N=4 wells; 5 h serum-free then 24 h; ONE-Glo
Method: (§1) For HeLa studies evaluating luciferase protein expression, PEG-DMG-2K dissolved in a 20 mM TRIS buffer (pH 7.5) is added to the neutralized intermediate nanoparticle solution at a ratio of 1:6, bringing the solution to the final molar ratios of IL1:DSPC:cholesterol:PEG-DMG-2K of 48.5:11.1:38.9:1.5%. This nanoparticle formulation is then modified with lipid amines. In a typical example, nanoparticle formulation at a concentration of 0.18 mg/mL mRNA and a 0.56 mL volume is modified with lipid amine SA50 (467.2 nmol) prepared in buffer containing 20 mM TRIS, 14.3 mM sodium acetate, 32 g/L sucrose and 140 mM NaCl-pH 7.5 at a volumetric ratio of 1:1 of nanoparticle:buffer.
(§2) Lipid nanoparticle compositions were prepared in a manner analogous to that in example 2. To evaluate LNP cellular uptake and protein expression In Vitro, HeLa cells from ATCC.org (ATCC CCL-2) are used. The cells are cultured in complete Minimum Essential Medium (MVEM) and are plated in 96 well Cell Carrier Ultra plate with PDL coated surface (PerkinElmer) prior to running an experiment.
Cells were transfected with buffer control (PBS) or LNPs encapsulating Luciferase mRNA (25 ng per well; N=4 replicate wells) in serum-free MEM media. LNP transfected cells were incubated for 5 h, followed by media removal and supplementation with complete MEM media. Cells were further incubated in complete MEM media overnight (24 h). Following the 24 hr incubation, luciferase protein expression was measured using the ONE-Glo™ Luciferase Assay (Promega). Cells were lysed using 1× Passive Lysis Buffer (Cat. #E194A) for 10 min in a microplate mixer at room temperature. Luciferase in the supernatant was measured by adding Luciferase Assay Reagent (Cat. #E151A) containing luciferin. Bioluminescence was then immediately measured on a Synergy H1 plate reader (BioTek). The results shown in Table 3a show the Average Relative Light Units (RLU) of each sample tested.

HeLa cells [2] = experiment: CFTR Protein Expression Assay in HeLa Cells; type: cell-based, Human; conditions: LNPs encapsulating CFTR mRNA, N=4 wells; 5 h serum-free then 24 h; immunofluorescence vs PBS control
Method: (§3) For HeLa studies evaluating CFTR protein expression, the intermediate nanoparticle formulation (1 mL, 0.415 mg mRNA) is mixed with a buffer containing 20 mM TRIS (pH 7.5), 0.9 mg/mL PEG-DMG-2K and lipid amine SA50 (647.1 nmol) at a volumetric ratio of 6:1 of nanoparticle:buffer. The resulting nanoparticle suspension undergoes concentration using a centrifugal filtration device (100 kDa molecular weight cut-off) and is diluted in running buffer (20 mM TRIS, 14.3 mM sodium acetate, and 32 g/L sucrose, pH 7.5) with a 300 mM NaCl solution to a final buffer matrix containing 70 mM NaCl.
as §2
Buffer control (PBS) and LNPs encapsulating cystic fibrosis transmembrane conductance regulator (CFTR) mRNA were dosed with MEM media in the absence of serum (N=4 replicate wells). LNP transfected cells were incubated for 5 h, followed by media removal and supplementation with complete MEM media. Cells were further incubated in complete MEM media overnight (24 h).
Following 24 hr incubation, the cells were fixed with PFA and processed for immunofluorescence (IF) using an anti-CFTR rabbit monoclonal antibody. Briefly, the cells were permeabilized with 0.5% TX-100 for 10 min, blocked with 3% bovine serum albumin (BSA)+PBST for 1 hr at room temperature, and incubated with primary anti-CFTR monoclonal antibody overnight at 4° C. Following primary antibody incubation, the cells were incubated with Alexa 488 conjugated secondary antibody for 30 mi and stained with DAPI and HCS CellMask Blue stain. Between different incubation steps the cells were either washed with PBS or PBST. Cells were imaged using Opera Phoenix spinning disk confocal microscope (PerkinElmer), and CFTR protein expression was detected using the 488 nm channel. The image analysis was performed in Harmony 4.9, with main analysis output being CFTR intensity per cell. The results shown in Table 3b show fold-change in CFTR signal intensity per cell compared to buffer (PBS) control (NA=not available).

[3] = Encapsulation of mRNA nanoparticles with lipid amines using Ribogreen assay; type: physicochemical
Method: (§4) Lipids are dissolved in ethanol at a concentration of 24 mg/mL and molar ratios of 49.0:11.2:39.3:0.5 (IL1:DSPC:cholesterol:PEG-DMG-2K) and mixed with the acidification buffer (45 mM acetate buffer at pH 4). The lipid solution and acidification buffer are mixed using a multi-inlet vortex mixer at a 3:7 volumetric ratio of lipid:buffer for mixer 1 and mixer 2 and a 1:3 volumetric ratio of lipid:buffer (25% ethanol) for mixer 3. After a 5 second residence time, the resulting nanoparticles are mixed with 55 mM sodium acetate at pH 5.6 at a volumetric ratio of 5:7 of nanoparticle:buffer. See Table 2a for mixing parameters. The resulting dilute nanoparticles are then buffer exchanged and concentrated using tangential flow filtration (TFF) into a final buffer containing 5 mM sodium acetate pH 5.0. Then a 70% sucrose solution in 5 mM acetate buffer at pH 5 is subsequently added.
(§5) The resulting nanoparticles at a lipid concentration of 7.33 mg/mL in 5 mM acetate (pH 5) and 75 g/L sucrose are mixed with mRNA (luciferease or CFTR) at a concentration of 0.625 mg/mL in 42.5 mM sodium acetate pH 5.0, with N:P of 4.93. The nanoparticle solution and nanoparticles are mixed using a multi-inlet vortex mixer at a 3:2 volumetric ratio of nanoparticle:mRNA. Once loaded with mRNA, these intermediate nanoparticles undergo a 300 second residence time prior addition of neutralization buffer containing 120 mM TRIS pH 8.12 at a volumetric ratio of 5:1 of nanoparticle:buffer.
as §1, §3
(§6) Both resulting nanoparticle suspensions are filtered through a 0.8/0.2 μm capsule filter and filled into glass vials at an mRNA strength of about 0.1-1 mg/mLBliophysical data (Diameter and PDI from DLS measurements and Encapsualtion using Ribogreen assay) for both luciferase and CFTR mRNA nanoparticles with lipid amines is shown in Tables 2c and d, respectively.

[4] = Diameter and PDI from DLS measurements of mRNA nanoparticles with lipid amines; type: physicochemical
Method: as §4, §5, §1, §3, §6

[5] = CFTR mRNA nanoparticle with lipid amine
[6] = Luciferase mRNA nanoparticle modified with lipid amine

Row | Compound | Average Relative Light Units ± Standard Deviation (HeLa cells [1]) [Relative Light Units] | Average fold-change in CFTR signal intensity per cell compared to buffer control ± standard deviation (HeLa cells [2]) [fold-change] | % Encapsulation (Ribogreen) [3, 5] [%] | % Encapsulation (Ribogreen) [3, 6] [%] | Diameter (nm) [4, 5] [nm] | PDI [4, 5] | Diameter (nm) [4, 6] [nm] | PDI [4, 6]
1 | CC(C)CCC[C@@H](C)[C@H]1CC[C@H]2[C@@H]3CC=C4C[C@@H](OC(=O)CCC(=O)N(CCCN)CCCCCCCCN)CC[C@]4(C)[C@H]3CC[C@]12C [SA72, (3S,8S,9S,10R,13R,14S,17R)-10,13-Dimethyl-17-((R)-6-methylheptan-2-yl)-2,3,4,7,8,9,10,11,12,13,14,15,16,17-tetradecahydro-1H-cyclopenta[a]phenanthren-3-yl 4-((8-aminooctyl)(3-aminopropyl)amino)-4-oxobutanoate dihydrochloride] | 30826.5 ± 5913.2 | 6.6 ± 0.6 | 99.8 | 99.1 | 73.0 | 0.11 | 72 | 0.11
2 | CC(C)CCC[C@@H](C)[C@H]1CC[C@H]2[C@@H]3CC=C4C[C@@H](OC(=O)N(CCCCNCCC(C)N)CCC(C)N)CC[C@]4(C)[C@H]3CC[C@]12C (stereo partly drawn) [SA76, (3S,8S,9S,10R,13R,14S,17R)-10,13-dimethyl-17-((R)-6-methylheptan-2-yl)-2,3,4,7,8,9,10,11,12,13,14,15,16,17-tetradecahydro-1H-cyclopenta[a]phenanthren-3-yl (3-aminobutyl)(4-((3-aminobutyl)amino)butyl)carbamate trihydrochloride] | 38232.8 ± 4603.5 | 12.0 ± 1.1 | 100 | 98.1 | 83.9 | 0.11 | 75 | 0.20
3 | CC(C)CCC[C@@H](C)[C@H]1CC[C@H]2[C@@H]3CC=C4C[C@@H](OC(=O)CCCC(=O)N(CCCCCCCC(C)N)CCC(C)N)CC[C@]4(C)[C@H]3CC[C@]12C (stereo partly drawn) [SA142, (3S,8S,9S,10R,13R,14S,17R)-10,13-dimethyl-17-((R)-6-methylheptan-2-yl)-2,3,4,7,8,9,10,11,12,13,14,15,16,17-tetradecahydro-1H-cyclopenta[a]phenanthren-3-yl 5-((3-aminobutyl)(8-aminononyl)amino)-5-oxopentanoate dihydrochloride] | 44925.4 ± 6006.5 | 20.0 ± 1.0 | 99.0 | 99.5 | 69.5 | 0.14 | 72 | 0.19
4 | CC(C)CCC[C@@H](C)[C@H]1CC[C@H]2[C@@H]3CC=C4C[C@@H](OC(=O)CSSCC(=O)N(CCCN)CCCCNCCCN)CC[C@]4(C)[C@H]3CC[C@]12C [SA98, (3S,8S,9S,10R,13R,14S,17R)-10,13-dimethyl-17-((R)-6-methylheptan-2-yl)-2,3,4,7,8,9,10,11,12,13,14,15,16,17-tetradecahydro-1H-cyclopenta[a]phenanthren-3-yl 2-((2-((3-aminopropyl)(4-((3-aminopropyl)amino)butyl)amino)-2-oxoethyl)disulfaneyl)acetate trihydrochloride] | 80.7 ± 36.7 | 1.0 ± 0 | 93 | 97.0 | 82.8 | 0.14 | 70 | 0.15
5 | CC(C)CCC[C@@H](C)[C@H]1CC[C@H]2[C@@H]3CC=C4C[C@@H](OC(=O)CCCC(=O)N(CCCCNCCC(C)N)CCC(C)N)CC[C@]4(C)[C@H]3CC[C@]12C.Cl.Cl.Cl (stereo partly drawn) [SA125, (3S,8S,9S,10R,13R,14S,17R)-10,13-dimethyl-17-((R)-6-methylheptan-2-yl)-2,3,4,7,8,9,10,11,12,13,14,15,16,17-tetradecahydro-1H-cyclopenta[a]phenanthren-3-yl 5-((3-aminobutyl)(4-((3-aminobutyl)amino)butyl)amino)-5-oxopentanoate trihydrochloride] | 15625.8 ± 3399.4 | 14.2 ± 0.9 | 99.0 | 99.7 | 75.0 | 0.15 | 77 | 0.19
6 | CC[C@H](CC[C@@H](C)[C@H]1CC[C@H]2[C@@H]3CC=C4C[C@@H](OC(=O)CCC(=O)N(CCCCCCCC(C)N)CCC(C)N)CC[C@]4(C)[C@H]3CC[C@]12C)C(C)C (stereo partly drawn) [SA163, (3S,8S,9S,10R,13R,14S,17R)-17-((2R,5R)-5-ethyl-6-methylheptan-2-yl)-10,13-dimethyl-2,3,4,7,8,9,10,11,12,13,14,15,16,17-tetradecahydro-1H-cyclopenta[a]phenanthren-3-yl 4-((3-aminobutyl)(8-aminononyl)amino)-4-oxobutanoate dihydrochloride] | 30168 ± 7878.9 | 11.3 ± 0.5 | 100 | 99.1 | 70.6 | 0.09 | 71 | 0.17
